Test results: US8592552B2 (priority 2007, dated 2013)
Where no end group is shown, it is not given here.

Key:
[1] = test system: African swine fever virus (ASFV) BA71V; assay type: cell-based

Substance | proliferation of Vero cells (proliferative index) (Vero cells) | I.C.E. at 50 μM (inhibition of the cytopathic effect) [1] | I.C.E. at 100 μM (inhibition of the cytopathic effect) [1]
RRRRRRRRSLVSSDESSSGSSHSSGEHS [RS28] | not modified | – | –
SS20: 20-residue negative control peptide of irrelevant sequence (SLVSSDESSSGSSHSSGEHS) [reference compound] | – | no | no
